Source: PMC6842543, “Antiparasitic effect of synthetic aromathecins on Leishmania infantum” (BMC Veterinary Research, 2019)

What was measured:
L. infantum amastigotes = assay: Ex vivo murine splenic explant culture with intramacrophagic iRFP L. infantum amastigotes; type: cell-based, Leishmania infantum; details: splenic-infecting amastigotes, ex vivo explants from infected BALB/c mice, 72 h; read-out: EC50 L. infantum amastigotes
Method: (§1) Two series of aromathecins (Table 1) have been tested against both stages of L. infantum, free-living promastigotes and intracellular amastigotes harbored in mouse splenic cells. Experiments were carried out using a genetically modified L. infantum strain that constitutively produces the iRFP protein. This makes it possible to evaluate the viability of parasites measuring the fluorescence emitted at 708 nm.
Primary splenocyte cultures containing intramacrophagic amastigotes were obtained from dissected spleens of female BALB/c mice infected intraperitoneally with 1.5 × 10^9 metacyclic iRFP L. infantum promastigotes, 5 weeks before their sacrifice. Mice were obtained commercially (Janvier-Labs). Animals were housed in specific-pathogen free facilities and they were euthanized by cervical dislocation without anesthesia. These protocols were approved by the Animal Care Committee of University of Leon (project license SAF2017–83575-R), which complies with European Union Legislation (2010/63/UE) and Spanish Act (RD 53/2013).
(§2) The spleens were washed with cold phosphate-buffered saline (PBS), cut in small pieces and incubated for 20 min with 5 mL of 2 mg/mL collagenase D (Sigma) prepared in buffer (10 mM HEPES, pH 7.4, 150 mM NaCl, 5 mM KCl, 1 mM MgCl2 and 1.8 mM CaCl2). After that, the cell suspension obtained was passed through a 100 μm cell strainer, harvested by centrifugation (500×g for 7 min at 4 °C), washed twice with PBS, and cultured at 37 °C under 5% CO2 atmosphere in RPMI medium (Gibco) supplemented with 10 mM HEPES, 1 mM sodium pyruvate, 1xRPMI 1640 vitamin mix, 10% (v/v) FBS, 50 U/mL penicillin and 50 μg/mL streptomycin (Calvo-Álvarez et al., 2015).
(§3) The viability of cultured parasites in the presence of different concentrations of aromathecins was determined by measuring the reduction of infrared fluorescence emitted by free-living promastigotes/amastigotes with respect to negative controls of each form of the parasite treated with DMSO (up to 0.1% final concentration) as a vehicle. […] After 72 h incubation at 26 °C, the infrared fluorescence emitted at 708 nm by viable promastigotes/amastigotes was measured in an Odyssey (Li-Cor) infrared imaging system. Similarly, the cytotoxic effect (CC50) of aromathecins on uninfected splenic explants from BALB/c mice (cells that naturally harbor the amastigote stage) was measured by the Alamar Blue (Invitrogen) assay. The selectivity index (SI) was determined as the relationship between the CC50 value and the EC50 value for amastigotes. CC50 and EC50 were calculated by nonlinear analysis using the Sigma-Plot 10.0 statistical package. The aromathecins were dissolved in DMSO and stored at − 20 °C before their use as fresh aliquots.

[1] = tested on: L. infantum promastigotes; assay: In vitro iRFP L. infantum promastigotes viability assay (infrared fluorescence); type: cell-based, Leishmania infantum; details: iRFP-L. infantum promastigotes, 72 h, 26 °C, fluorescence at 708 nm; average of three experiments by duplicate; read-out: EC50 L. infantum promastigotes
Method: as §1
The antiparasitic activity of the compounds was assessed on the genetically modified iRFP L. infantum strain, which constitutively produces the infrared fluorescent protein (iRFP) when cells are viable. iRFP L. infantum was grown at 26 °C in M-199 medium (Gibco) supplemented with 25 mM HEPES pH 7.2, 0.1 mM adenine, 0.0005% (w/v) hemin, 2 μg/mL biopterin, 0.0001% (w/v) biotin, 10% (v/v) heat-inactivated fetal bovine serum (FBS) and an antibiotic cocktail comprising 50 U/mL penicillin and 50 μg/mL streptomycin.
as §3

Murine Splenocytes = assay: Cytotoxicity on uninfected splenic explants (Alamar Blue); type: cell-based, BALB/c mice
Method: as §2, §3

C[C@@H]1[C@H](O)[C@@H](C)/C=C/C=C/C=C/C=C/C=C/C=C/C=C/[C@H](O[C@@H]2O[C@H](C)[C@@H](O)[C@H](N)[C@@H]2O)C[C@@H]2O[C@](O)(C[C@@H](O)C[C@@H](O)[C@H](O)CC[C@@H](O)C[C@@H](O)CC(=O)O[C@H]1C)C[C@H](O)[C@H]2C(=O)O [AMB, reference compound]
EC50 (L. infantum amastigotes): 0.3 µM
EC50 [1]: 0.8 ± 0.1 µM
CC50 (Murine Splenocytes): > 20 µM
